Experimental data taken from ChEMBL document CHEMBL1201862, “PubChem BioAssay data set” (2004).
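How tested: cells in 96-well plates exposed to compound for 48 hours at five concentrations. GI50 is the concentration that inhibits growth by half.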 Active and inactive are the calls of the source. Rule as the data show it: active = GI50 up to about 1.1 µM and inactive = higher.

Key:
Experiment in all cases: NCI-60 cell line screen, 48 h
[1] = tested on: DMS-273
[2] = tested on: KM-20L2
[3] = tested on: LXFL 529
[4] = tested on: M19-MEL
[5] = tested on: MDA-N
[6] = tested on: RXF 631
[7] = tested on: XF498
[8] = tested on: DLD-1
[9] = tested on: SNB-78

Row | SMILES | GI50 [1] | GI50 [2] | GI50 [3] | GI50 [4] | GI50 [5] | GI50 [6] | GI50 [7] | GI50 [8] | GI50 [9]
1 | COc1cc(Nc2nc3c(N)cc(C(F)(F)F)cc3nc2-c2ccccc2)cc(OC)c1OC | 37.9 µM (inactive) | > 65.5 µM (inactive) | 63.5 µM (inactive) | > 82.2 µM (inactive) | > 80.7 µM (inactive) | > 44.5 µM (inactive) | 19.1 µM (inactive) |  | 
2 | O=C(O)[C@H](NS(=O)(=O)c1ccc(F)cc1)c1ccccc1 | > 100 µM (inactive) | > 100 µM (inactive) | > 100 µM (inactive) | > 100 µM (inactive) |  |  | > 100 µM (inactive) | > 100 µM (inactive) | > 100 µM (inactive)
3 | COc1ccc(NC(=O)/C(=C/c2ccccc2)C(C)=O)cc1 | 13.7 µM (inactive) | 14.3 µM (inactive) | 12.4 µM (inactive) | 14.3 µM (inactive) |  | 15.7 µM (inactive) | 16.2 µM (inactive) | 12.8 µM (inactive) | 15.5 µM (inactive)
4 | Cc1cc(N(CCC#N)CCC#N)ccc1/C(Sc1ccccc1)=C(\NC(=O)/C=C/c1ccccc1)C(=O)Sc1ccccc1 | 6.44 µM (inactive) | 2.14 µM (inactive) | 1.57 µM (inactive) | 3.22 µM (inactive) |  | 2.79 µM (inactive) | 12 µM (inactive) | 1.73 µM (inactive) | 3.33 µM (inactive)
5 | NNC(=O)N/N=C(/CC1(O)C(=O)Nc2ccc(Br)cc21)c1ccccc1 (configuration not stated) | 28.4 µM (inactive) | 27.9 µM (inactive) | 23.4 µM (inactive) | 32.4 µM (inactive) |  | 38.6 µM (inactive) | 18.9 µM (inactive) | 35.9 µM (inactive) | 34.5 µM (inactive)
6 | Cc1nc2ccccc2nc1CC(=O)C(=O)Nc1ccc(Cl)cc1Cl | > 100 µM (inactive) | > 100 µM (inactive) | > 100 µM (inactive) | > 100 µM (inactive) |  | > 100 µM (inactive) |  | > 100 µM (inactive) | > 100 µM (inactive)
7 | Cc1nc(N)nc(N)c1CCCCc1ccccc1 | 4.7 µM (inactive) | 10.8 µM (inactive) | 9.89 µM (inactive) | 12.4 µM (inactive) |  | 11.9 µM (inactive) |  | 6.15 µM (inactive) | 35.3 µM (inactive)
8 | NC(=O)c1c(-c2ccccc2)c(-c2ccccc2)cc2c(=O)c3ccccc3[nH]c12 | 19.9 µM (inactive) | 21 µM (inactive) | 16.1 µM (inactive) | 27.6 µM (inactive) |  | 27.4 µM (inactive) | 18 µM (inactive) | 35.3 µM (inactive) | 22.3 µM (inactive)
9 | COc1ccc(C2C(C(=O)O)=C(CO)Oc3cc4c(cc32)OCO4)c(OC)c1 (configuration not stated) | 60.3 µM (inactive) | > 100 µM (inactive) |  | 60.4 µM (inactive) |  | 87.3 µM (inactive) | 9.73 µM (inactive) | 54.7 µM (inactive) | > 100 µM (inactive)
10 | CCOC(=O)Cn1c(=O)[nH]c(=O)c2c1ncn2Cc1ccccc1 | > 100 µM (inactive) | > 100 µM (inactive) | > 100 µM (inactive) | > 100 µM (inactive) |  | > 100 µM (inactive) | > 100 µM (inactive) | > 100 µM (inactive) | > 100 µM (inactive)
11 | O=[N+]([O-])c1ccc(C2=Nn3cnnc3SC2)o1 | 17.6 µM (inactive) |  | 13.6 µM (inactive) | 4.02 µM (inactive) |  | 12.1 µM (inactive) | 16.6 µM (inactive) | 19.6 µM (inactive) | 22.2 µM (inactive)
12 | O/N=C1/C(=C/c2ccc(OCc3ccccc3)cc2)CCCC1C(NO)c1ccc(OCc2ccccc2)cc1 (configuration not stated) | 13 µM (inactive) | 8.38 µM (inactive) | 12.7 µM (inactive) | 22.2 µM (inactive) |  | 8.47 µM (inactive) |  | 10.2 µM (inactive) | 
13 | Nc1c(-c2nc3ccccc3[nH]2)sc(=S)n1-c1ccccc1 | > 100 µM (inactive) | > 10 µM (inactive) | 95.3 µM (inactive) | > 100 µM (inactive) |  | > 100 µM (inactive) |  | 60.7 µM (inactive) | > 100 µM (inactive)
14 | O=[N+]([O-])c1ccc(C2=Nn3c(nnc3-c3ccccc3)SC2)o1 | 20 µM (inactive) | 24.7 µM (inactive) | 16.1 µM (inactive) | 18.5 µM (inactive) |  |  | 19.7 µM (inactive) | 14 µM (inactive) | 20.3 µM (inactive)
15 | COc1ccc(-c2c3ccccc3c(-c3ccc(OC)cc3)c3ccccc23)cc1 | > 100 µM (inactive) | > 100 µM (inactive) | > 100 µM (inactive) | > 100 µM (inactive) |  |  | > 100 µM (inactive) | > 100 µM (inactive) | > 100 µM (inactive)
16 | Cc1cc2nc3c(=O)[nH]c(=O)nc-3n(CC(O)C(O)C(O)CO)c2cc1N (configuration not stated) | > 100 µM (inactive) |  | > 100 µM (inactive) | > 100 µM (inactive) |  | > 100 µM (inactive) |  |  | > 100 µM (inactive)
17 | C/C=N\N1C(=O)c2ccccc2C1=O | > 100 µM (inactive) | > 100 µM (inactive) | > 100 µM (inactive) | > 100 µM (inactive) |  | > 100 µM (inactive) | > 100 µM (inactive) | > 100 µM (inactive) | > 100 µM (inactive)
18 | CC1OC(n2cc(F)c(=O)[nH]c2=O)C=CC1O (configuration not stated) | > 100 µM (inactive) | > 100 µM (inactive) | > 100 µM (inactive) | > 100 µM (inactive) |  | > 100 µM (inactive) | > 100 µM (inactive) | > 100 µM (inactive) | > 100 µM (inactive)
19 | CN(C)CCCNc1ccc2nnn3c4ccc([N+](=O)[O-])cc4c(=O)c1c23 | 0.685 µM (active) | 0.745 µM (active) | 1.22 µM (inactive) | 3.65 µM (inactive) | 2.09 µM (inactive) | 0.723 µM (active) | 1.5 µM (inactive) | 0.931 µM (active) | 2.08 µM (inactive)
20 | CNC(=O)OCc1nc([S+](C)[O-])n(C)c1COC(=O)NC (configuration not stated) | > 100 µM (inactive) | > 100 µM (inactive) | > 23.1 µM (inactive) | > 45.1 µM (inactive) |  | > 100 µM (inactive) | > 100 µM (inactive) | > 100 µM (inactive) | > 60.5 µM (inactive)
21 | CCc1ccccc1NC(=O)c1cccc([N+](=O)[O-])c1O | 22.1 µM (inactive) | 24.7 µM (inactive) | 36.4 µM (inactive) | 23.6 µM (inactive) |  | 23.7 µM (inactive) | 20.4 µM (inactive) | 26.7 µM (inactive) | 37.8 µM (inactive)
22 | CCCN(CCC)C(=O)Cc1c2n(c3ccccc13)Cc1ccccc1-2 | 29.1 µM (inactive) | > 100 µM (inactive) | 42.4 µM (inactive) | 56.6 µM (inactive) |  |  | > 100 µM (inactive) | 63.4 µM (inactive) | > 100 µM (inactive)
